Patent US7250410B2, “Cyclic nucleotide phosphodiesterase inhibitors, preparation and uses thereof” (Via Pharmaceuticals, Inc., priority 2001, dated 2007)
Several values for one entry are separate records, joined by “and”; a condition that tells them apart may be missing. Identical values can stand only once.

Key:
PDE4 = experiment: Inhibition of PDE4, radioenzymatic phosphodiesterase assay; format: biochemical, bovine
Method in brief: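 PDE4 partially purified from bovine aortic media by 105,000 g centrifugation and anion-exchange chromatography with an NaCl gradient. Activity measured radioenzymatically: product nucleoside separated from nucleotides by anion exchange and counted by liquid scintillation.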

PDE1 = experiment: Selectivity: inhibition of PDE1, radioenzymatic phosphodiesterase assay; format: biochemical, bovine; set-up: PDE1 percentage inhibition at 10 μM: unit: %; settings: Table 4 Selectivity; for PDE1 percentage inhibition at 10 μM: compound at 10 μM
Description: (§1) A 3 g segment of bovine aortic media cut into pieces with scissors was homogenized with an ultra-turrax then a potter glass/glass homogenizer in 7 volumes by weight of buffer A containing a protease inhibitor cocktail (20 mM Tris-HCl, 0.25 M saccharose, 2 mM magnesium acetate, 1 mM dithiothreitol, 5 mM EGTA, 2000 U/ml aprotinin, 10 mg/l leupeptin and 10 mg/l soya trypsic inhibitor). The homogenizate was centrifuged at 105,000 g for 1 hour. The supernatant was loaded on a DEAE-Sephacel column (15×1.6 cm) pre-equilibrated with buffer B (buffer A without the saccharose, EGTA and protease inhibitors). The column was washed until there was no detectable absorption at 280 nm, then eluted with a linear gradient of NaCl (0–0.5 M) in buffer B. 3-ml fractions were collected and enzyme activity was determined under the conditions described hereinafter to localize the different enzymes PDE1, PDE3, PDE4 and PDE5, which were aliquoted and frozen at −80° C. (Lugnier et al., Biochem. Phamacol., 35 (1986) 1746–1751). PDE2 was prepared from bovine endothelial cells by the same methods (Lugnier and Schini, Biochem. Pharmacol. 1990, 39; 75–84).
(§2) Cyclic nucleotide phosphodiesterase activity was determined by a radioenzymatic method using tritium-labelled cyclic GMP or AMP (1 μM) as substrate (Lugnier et al., 1986). ^3H-labelled adenosine or guanosine monophosphate formed by hydrolysis of the radiolabelled cyclic nucleotide was then converted to ^3H-labelled adenosine or guanosine in a second reaction with […] in excess. The nucleoside formed was separated from the nucleotides by anion exchange chromatography. Nucleoside radioactivity was determined by liquid scintillation counting. Enzymatic incubations were carried out under conditions allowing no more than 15% hydrolysis of the substrate; each point was performed in duplicate.
(§3) The activity of the compounds was evaluated on other phosphodiesterase isoforms, particularly basal state or calmodulin-activated PDE1 from vascular smooth muscle, basal state or cyclic GMP-activated PDE2 from vascular endothelial cells, PDE3 and PDE5 from vascular smooth muscle.
(§4) The results obtained are presented in Table 4 hereinafter and are expressed as the percentage inhibition of enzymatic activity produced by […] of the tested compound.

PDE2 = target: T1, PDE2 (Bos taurus, UniProt P14099); experiment: Selectivity: inhibition of PDE2, radioenzymatic phosphodiesterase assay; format: biochemical, bovine; settings: Table 4 Selectivity; for inhibition at 10 µM: compound at 10 μM, read-out: PDE2 percentage inhibition at 10 μM
T1 construct: PDE2 was prepared from bovine endothelial cells by the same methods; endogenous in cells; host or cells: bovine vascular endothelial cells, DEAE-Sephacel fraction
T1 sequence (P14099 1-921): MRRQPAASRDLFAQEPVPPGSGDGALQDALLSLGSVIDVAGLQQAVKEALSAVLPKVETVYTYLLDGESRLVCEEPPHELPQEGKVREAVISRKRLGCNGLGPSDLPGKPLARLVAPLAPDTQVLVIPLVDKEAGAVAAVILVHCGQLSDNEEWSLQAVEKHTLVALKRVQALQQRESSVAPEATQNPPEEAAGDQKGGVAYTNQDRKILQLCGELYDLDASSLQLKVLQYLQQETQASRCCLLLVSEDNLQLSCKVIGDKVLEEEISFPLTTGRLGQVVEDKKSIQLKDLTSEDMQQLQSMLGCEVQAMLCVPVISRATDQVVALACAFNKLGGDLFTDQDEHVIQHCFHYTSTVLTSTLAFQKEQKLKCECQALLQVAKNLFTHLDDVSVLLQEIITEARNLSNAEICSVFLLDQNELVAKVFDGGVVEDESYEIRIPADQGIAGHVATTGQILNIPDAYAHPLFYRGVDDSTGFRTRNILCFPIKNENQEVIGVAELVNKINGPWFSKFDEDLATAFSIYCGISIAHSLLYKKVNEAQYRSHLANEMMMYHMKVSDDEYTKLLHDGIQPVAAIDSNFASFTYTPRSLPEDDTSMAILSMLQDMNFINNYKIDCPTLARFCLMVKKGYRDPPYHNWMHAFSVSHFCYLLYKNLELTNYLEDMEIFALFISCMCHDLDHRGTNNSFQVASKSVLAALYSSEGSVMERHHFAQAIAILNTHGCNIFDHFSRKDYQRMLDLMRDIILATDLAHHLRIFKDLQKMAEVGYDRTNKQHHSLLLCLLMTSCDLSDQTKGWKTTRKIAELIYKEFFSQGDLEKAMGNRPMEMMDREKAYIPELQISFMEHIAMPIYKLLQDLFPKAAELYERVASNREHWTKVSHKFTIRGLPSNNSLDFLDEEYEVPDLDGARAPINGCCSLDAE
Description: as §1, §2, §3, §4

PDE3 = target: T2, PDE3 (Bos taurus, UniProt A0A3Q1M1E8); experiment: Selectivity: inhibition of PDE3, radioenzymatic phosphodiesterase assay; format: biochemical, bovine; settings: read-out: PDE3 percentage inhibition at 10 μM
T2 sequence (A0A3Q1M1E8 1-1126): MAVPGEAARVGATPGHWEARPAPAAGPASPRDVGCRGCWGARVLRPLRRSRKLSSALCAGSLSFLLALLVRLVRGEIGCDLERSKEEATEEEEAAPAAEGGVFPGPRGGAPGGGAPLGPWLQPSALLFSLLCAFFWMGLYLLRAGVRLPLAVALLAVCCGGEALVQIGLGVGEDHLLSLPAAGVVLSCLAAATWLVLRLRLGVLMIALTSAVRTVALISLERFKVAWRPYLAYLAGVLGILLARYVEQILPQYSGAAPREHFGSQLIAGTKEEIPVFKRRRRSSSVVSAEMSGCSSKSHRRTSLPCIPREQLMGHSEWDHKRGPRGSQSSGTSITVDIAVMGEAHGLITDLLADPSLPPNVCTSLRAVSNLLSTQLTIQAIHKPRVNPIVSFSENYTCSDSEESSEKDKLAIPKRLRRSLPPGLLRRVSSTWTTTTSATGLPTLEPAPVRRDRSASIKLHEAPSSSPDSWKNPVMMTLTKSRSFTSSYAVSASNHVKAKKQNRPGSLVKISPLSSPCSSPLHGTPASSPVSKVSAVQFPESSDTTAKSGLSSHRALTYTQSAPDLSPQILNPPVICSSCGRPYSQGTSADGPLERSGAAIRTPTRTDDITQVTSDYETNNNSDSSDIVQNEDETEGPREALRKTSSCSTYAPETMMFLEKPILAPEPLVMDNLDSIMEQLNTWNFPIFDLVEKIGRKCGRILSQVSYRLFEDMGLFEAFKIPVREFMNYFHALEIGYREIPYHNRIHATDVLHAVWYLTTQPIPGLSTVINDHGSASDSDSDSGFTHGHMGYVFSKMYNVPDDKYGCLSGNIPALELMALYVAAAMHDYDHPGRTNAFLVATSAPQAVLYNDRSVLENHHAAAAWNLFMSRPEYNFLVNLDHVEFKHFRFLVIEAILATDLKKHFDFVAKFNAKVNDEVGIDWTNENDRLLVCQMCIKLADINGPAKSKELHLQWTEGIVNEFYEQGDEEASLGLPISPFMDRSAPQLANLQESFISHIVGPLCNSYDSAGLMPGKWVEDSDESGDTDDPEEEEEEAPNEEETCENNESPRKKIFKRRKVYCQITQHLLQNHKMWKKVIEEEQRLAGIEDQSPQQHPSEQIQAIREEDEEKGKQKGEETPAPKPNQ
Description: as §1, §2, §3, §4

PDE5 = target: T3, PDE5 (Bos taurus, UniProt Q28156); experiment: Selectivity: inhibition of PDE5, radioenzymatic phosphodiesterase assay; format: biochemical, bovine; settings: Table 4 Selectivity
T3 construct: localize the different enzymes PDE1, PDE3, PDE4 and PDE5, which were aliquoted and frozen; from tissue; host or cells: bovine aortic media (vascular smooth muscle), DEAE-Sephacel fraction
Description: as §1, §2, §3, §4

TNFα = TNFα production by LPS-activated mononuclear cells from venous blood (ELISA); format: cell-based; settings: Homo sapiens
Description: Compounds according to the invention were assessed for anti-inflammatory properties on mononuclear cells from venous blood of healthy donors (n=4), by a protocol approved by the Alsace No. 1 Ethics Committee. More specifically, the cells were incubated for 24 hours in 24-well plates in the presence of the test compound, after activation by Salmonella Abortis Equi lipopolysaccharide (LPS) (5 pg/ml) (cf. De Groote et al., Cytokine 4, 1992, 239). After incubation, TNFα concentrations were determined in the culture supernatant by an ELISA method (Antibody Solutions, Half Moon Bay, Calif., USA).

IL1β, IL6 and IL8 = IL1β, IL6 and IL8 secretion by LPS-activated mononuclear cells from venous blood; format: cell-based, human; settings: compound at 1 μM
[1] = Table 1, formula (III), 1 μM cyclic AMP
[2] = Table 3, formula (II), 1 μM cyclic AMP
[3] = Table 2, formula (XXII), 1 μM cyclic AMP

`COc1cc2c(cc1OC)C(c1ccc(-c3ccco3)cc1)=NN(C)C(=O)C2` [IIIav, 1-[4-(2-furyl)phenyl]-7,8-dimethoxy-3-methyl-3,5-dihydro-4H-2,3-benzodiazepin-4-one] was tested, and the IC50 (PDE4; [1]) was 900 nM, the IC50 (PDE4; Table 4 Selectivity) was 900 nM and the “PDE1 percentage inhibition at 10 μM” value (PDE1) was 49%. The IC50 (PDE2) was 19000 nM, the inhibition at 10 µM (PDE3) was 92% and the IC50 (PDE5) was 40000 nM.
In the case of `CCOc1cc2c(cc1OCC)N(CC)C(=O)CN=C2c1ccccc1` [IIbg, 7,8-diethoxy-1-ethyl-5-phenyl-1,3-dihydro-2H-1,4-benzodiazepin-2-one], the IC50 (PDE4; [2]) is reported as 900 nM and 1600 nM, the IC50 (PDE4; Table 4 Selectivity) is reported as 900 nM and the “PDE1 percentage inhibition at 10 μM” value (PDE1) is reported as 47%. It also gave an inhibition at 10 µM (PDE2) of 20% and an inhibition at 10 µM (PDE3) of 40%.
`COc1cc2c(cc1OC)C(c1cc3ccccc3s1)=NN(C)C(=O)C2` [IIIab, 1-(2-benzo[b]thienyl)-7,8-dimethoxy-3-methyl-3,5-dihydro-4H-2,3-benzodiazepin-4-one] gave an IC50 (PDE4; [1]) of 300 nM, an IC50 (PDE4; Table 4 Selectivity) of 300 nM and an IC50 (PDE1) of 3810 nM. It also gave an IC50 (PDE2) of 16000 nM, an IC50 (PDE5) of 4300 nM and an inhibition at 1 µM (TNFα; compound at 1 μM, 24 hours, LPS 5 pg/ml, read-out: inhibition of TNFα production) of 100%. The “IL1β, IL6 and IL8 secretion levels” value (IL1β, IL6 and IL8) was “not at all altered”.
With `CCOc1cc2c(cc1OC)C(c1ccccc1)=NC(Cc1cccc(C(N)=O)c1)C(=O)N2C` (stereo not drawn) [IIdh, 3-[(8-ethoxy-7-methoxy-1-methyl-2-oxo-5-phenyl-2,3-dihydro-1H-1,4-benzodiazepin-3-yl)methyl]benzamide] the IC50 (PDE4; [2]) was 520 nM and the IC50 (TNFα; read-out: anti-TNFα activity IC50) was 100 to 1000 nM.
For `CCOc1cc2c(cc1OCC)C(CC)C(=O)N(C)N=C2c1cc2ccccc2s1` (stereo not drawn) [IIIbb, 1-(2-benzo[b]thienyl)-7,8-diethoxy-5-ethyl-3-methyl-3,5-dihydro-4H-2,3-benzodiazepin-4-one], the IC50 (PDE4; [1]) was 87 nM, the IC50 (PDE4; Table 4 Selectivity) was 87 nM and the IC50 (PDE1) was 14000 nM. It also gave an inhibition at 10 µM (PDE2) of 25% and an IC50 (PDE5) of 5700 nM.
In the case of `CCOc1cc2c(cc1OCC)C(c1ccccc1)=NC(C)C(=O)N2` (stereo not drawn) [XXIIai, 7,8-diethoxy-3-methyl-5-phenyl-1,3-dihydro-2H-1,4-benzodiazepin-2-one], the IC50 (PDE4; [3]) is reported as 1700 nM, the IC50 (PDE4; Table 4 Selectivity) is reported as 1700 nM and the “PDE1 percentage inhibition at 10 μM” value (PDE1) is reported as 55%. The inhibition at 10 µM (PDE2) was 6% and the inhibition at 10 µM (PDE3) was 55%.
With `CCOc1cc2c(cc1OC)C(c1ccccc1)=NCC(=O)N2` [XXIIam, 8-ethoxy-7-methoxy-5-phenyl-1,3-dihydro-2H-1,4-benzodiazepin-2-one] the IC50 (PDE4; [3]) was 700 nM, the IC50 (PDE4; Table 4 Selectivity) was 700 nM and the “PDE1 percentage inhibition at 10 μM” value (PDE1) was 29%. For the same compound, the inhibition at 10 µM (PDE2) was 36%, the inhibition at 10 µM (PDE3) was 36% and the inhibition at 10 µM (PDE5; compound at 10 μM, read-out: PDE5 percentage inhibition at 10 μM) was 35%.
